From ChEMBL document CHEMBL3217649, “Synthesis of new N-substituted aminoquercitols from naturally available (+)-proto-quercitol and their -glucosidase inhibitory activity” (Medchemcomm, 2012)
The source made the active and inactive calls. The rule behind the calls is not given here.

Assays:
[1] = Inhibition of type 2 alpha-glucosidase in rat small intestine using maltose as substrate after 10 mins by microplate reader analysis
[2] = molecular target: Sucrase-isomaltase, intestinal (Rattus norvegicus) (UniProt P23739); experiment: Inhibition of sucrase in rat small intestine using sucrose as substrate at 1 mg/ml after 40 mins by microplate reader analysis
Chain of Sucrase-isomaltase, intestinal (Rattus norvegicus) (P23739 1-1013 limits assumed): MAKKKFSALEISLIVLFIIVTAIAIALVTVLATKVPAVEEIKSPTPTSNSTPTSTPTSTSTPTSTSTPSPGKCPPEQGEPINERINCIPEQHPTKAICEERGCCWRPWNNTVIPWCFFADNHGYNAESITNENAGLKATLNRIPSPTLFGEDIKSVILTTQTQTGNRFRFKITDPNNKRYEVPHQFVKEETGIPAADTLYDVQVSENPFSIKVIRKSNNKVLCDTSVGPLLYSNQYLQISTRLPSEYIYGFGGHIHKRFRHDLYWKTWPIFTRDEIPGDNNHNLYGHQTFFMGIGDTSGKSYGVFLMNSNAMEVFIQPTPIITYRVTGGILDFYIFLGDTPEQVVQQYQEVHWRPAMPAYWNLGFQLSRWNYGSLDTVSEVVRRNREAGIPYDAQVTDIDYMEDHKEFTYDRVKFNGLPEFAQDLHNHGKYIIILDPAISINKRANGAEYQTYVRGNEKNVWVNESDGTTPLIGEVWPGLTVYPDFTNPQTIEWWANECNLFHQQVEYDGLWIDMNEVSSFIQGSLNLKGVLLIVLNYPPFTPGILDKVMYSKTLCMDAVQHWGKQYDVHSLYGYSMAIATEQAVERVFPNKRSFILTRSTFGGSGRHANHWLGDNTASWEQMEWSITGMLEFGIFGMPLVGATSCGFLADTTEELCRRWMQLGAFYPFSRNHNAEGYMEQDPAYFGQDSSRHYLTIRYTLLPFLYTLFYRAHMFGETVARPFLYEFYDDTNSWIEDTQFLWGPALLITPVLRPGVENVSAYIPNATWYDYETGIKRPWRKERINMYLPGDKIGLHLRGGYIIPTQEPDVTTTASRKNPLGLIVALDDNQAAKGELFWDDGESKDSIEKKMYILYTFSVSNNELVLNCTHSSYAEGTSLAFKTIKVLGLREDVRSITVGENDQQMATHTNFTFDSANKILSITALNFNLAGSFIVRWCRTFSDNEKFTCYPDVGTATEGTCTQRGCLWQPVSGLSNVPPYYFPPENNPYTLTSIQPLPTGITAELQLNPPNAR
Chain of Sucrase-isomaltase, intestinal (Rattus norvegicus) (P23739 1014-1841 limits assumed): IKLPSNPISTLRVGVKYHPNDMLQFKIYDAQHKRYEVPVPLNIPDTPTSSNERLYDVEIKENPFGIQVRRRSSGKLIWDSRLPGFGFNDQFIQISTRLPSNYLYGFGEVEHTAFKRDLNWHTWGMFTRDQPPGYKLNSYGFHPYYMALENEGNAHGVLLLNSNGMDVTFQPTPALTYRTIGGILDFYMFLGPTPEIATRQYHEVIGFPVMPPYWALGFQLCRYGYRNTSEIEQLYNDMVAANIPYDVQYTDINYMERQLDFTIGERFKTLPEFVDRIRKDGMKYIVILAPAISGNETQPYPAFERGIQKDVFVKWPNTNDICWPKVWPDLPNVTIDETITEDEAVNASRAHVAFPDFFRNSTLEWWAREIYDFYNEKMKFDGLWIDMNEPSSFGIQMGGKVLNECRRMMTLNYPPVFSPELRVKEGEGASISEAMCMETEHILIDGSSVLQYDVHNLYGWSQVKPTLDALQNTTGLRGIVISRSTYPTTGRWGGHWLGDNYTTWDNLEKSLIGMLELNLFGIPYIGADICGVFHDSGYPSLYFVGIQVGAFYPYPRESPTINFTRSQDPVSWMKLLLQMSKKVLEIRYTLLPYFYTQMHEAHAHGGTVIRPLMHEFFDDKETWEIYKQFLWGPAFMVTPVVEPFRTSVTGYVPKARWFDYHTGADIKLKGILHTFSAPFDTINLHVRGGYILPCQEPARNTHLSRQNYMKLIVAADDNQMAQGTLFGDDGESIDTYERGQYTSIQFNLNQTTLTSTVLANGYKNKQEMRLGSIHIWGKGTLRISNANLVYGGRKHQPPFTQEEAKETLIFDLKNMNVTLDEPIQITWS

[3] = Inhibition of baker's yeast type 1 alpha-glucosidase using p-nitrophenyl-alpha-D-glucopyranoside as substrate incubated for 10 mins prior to substrate challenge for 20 mins by microplate reader analysis; design: species or system Saccharomyces cerevisiae
Saccharomyces cerevisiae [4] = experiment: Inhibition of baker's yeast type 1 alpha-glucosidase using p-nitrophenyl-alpha-D-glucopyranoside as substrate at 10 mg/ml incubated for 10 mins prior to substrate challenge for 20 mins by microplate reader analysis
[5] = Inhibition of maltase in rat small intestine using maltose as substrate by Lineweaver-Burk plot based secondary replot analysis; format: tissue-based
Rattus norvegicus [6] = species: Rattus norvegicus; experiment: Competitive inhibition of maltase in rat small intestine using maltose as substrate by Lineweaver-Burk plot analysis
[7] = molecular target: Sucrase-isomaltase, intestinal (Rattus norvegicus, UniProt P23739); experiment: Inhibition of sucrase in rat small intestine using sucrose as substrate after 40 mins by microplate reader analysis
Chain of Sucrase-isomaltase, intestinal (P23739 1-1013 limits assumed): as the sequence (P23739 1-1013 limits assumed) above
Chain of Sucrase-isomaltase, intestinal (P23739 1014-1841 limits assumed): as the sequence (P23739 1014-1841 limits assumed) above

Saccharomyces cerevisiae [8] = experiment: Ratio of acarbose IC50 to compound IC50 for baker's yeast type 1 alpha-glucosidase
Rattus norvegicus [9] = species: Rattus norvegicus; experiment: Ratio of acarbose IC50 to compound IC50 for type 2 alpha-glucosidase in rat small intestine
Rattus norvegicus [10] = species: Rattus norvegicus; experiment: Inhibition of type 2 alpha-glucosidase in rat small intestine using maltose as substrate at 1 mg/ml after 10 mins by microplate reader analysis

CC(=O)N[C@H]1C[C@@H](O)[C@H](O)[C@@H](O)[C@H]1O
IC50 [1]: 180 µM | inhibition [2]: < 30% | IC50 [3]: 270 µM

CCCCN[C@@H]1C[C@@H](O)[C@H](O)[C@@H](O)[C@H]1O
IC50 [1]: 57 µM | inhibition [2]: < 30% | IC50 [3]: 1200 µM

CCCCCCCCCCCC(=O)N[C@H]1C[C@@H](O)[C@H](O)[C@@H](O)[C@H]1O
IC50 [1]: 10 µM | inhibition [2]: < 30% | inhibition (Saccharomyces cerevisiae [4]): < 30%

CCN(CC)[C@@H]1C[C@@H](O)[C@H](O)[C@@H](O)[C@H]1O
IC50 [1]: 5 µM | inhibition [2]: < 30% | Ki [5]: 3.5 µM | competitive inhibition (Lineweaver-Burk) (Rattus norvegicus [6]): Active | IC50 [3]: 1600 µM

CC(=O)N[C@@H]1C[C@@H](O)[C@H](O)[C@@H](O)[C@H]1O
IC50 [1]: 5.3 µM | IC50 [7]: 5.3 µM | IC50 [3]: 150 µM | Ratio IC50 (Saccharomyces cerevisiae [8]): 3

CCCCCCCCCCN[C@@H]1C[C@@H](O)[C@H](O)[C@@H](O)[C@H]1O
IC50 [1]: 0.41 µM | inhibition [2]: < 30% | Ratio IC50 (Rattus norvegicus [9]): 3 | inhibition (Saccharomyces cerevisiae [4]): < 30%

CCCCCCCCCCCC(=O)N[C@@H]1C[C@@H](O)[C@H](O)[C@@H](O)[C@H]1O
IC50 [1]: 7.4 µM | inhibition [2]: < 30% | inhibition (Saccharomyces cerevisiae [4]): < 30%

CCCCCCCCCCCCN[C@@H]1C[C@@H](O)[C@H](O)[C@@H](O)[C@H]1O
IC50 [1]: 1.5 µM | inhibition [2]: < 30% | inhibition (Saccharomyces cerevisiae [4]): < 30%

CCN[C@H]1C[C@@H](O)[C@H](O)[C@@H](O)[C@H]1O
inhibition [2]: < 30% | inhibition (Saccharomyces cerevisiae [4]): < 30% | inhibition (Rattus norvegicus [10]): 30%

CCCCCCCCCCCCN[C@H]1C[C@@H](O)[C@H](O)[C@@H](O)[C@H]1O
IC50 [1]: 1.9 µM | inhibition [2]: < 30% | inhibition (Saccharomyces cerevisiae [4]): < 30%

CCCCN(CCCC)[C@H]1C[C@@H](O)[C@H](O)[C@@H](O)[C@H]1O
IC50 [1]: 24 µM | IC50 [7]: 36 µM | IC50 [3]: 2300 µM

CCCC(=O)N[C@H]1C[C@@H](O)[C@H](O)[C@@H](O)[C@H]1O
IC50 [1]: 38 µM | inhibition [2]: < 30% | inhibition (Saccharomyces cerevisiae [4]): < 30%

CCCCCCN[C@H]1C[C@@H](O)[C@H](O)[C@@H](O)[C@H]1O
IC50 [1]: 2.5 µM | inhibition [2]: < 30% | inhibition (Saccharomyces cerevisiae [4]): < 30%

CCCCCCN(CCCCCC)[C@@H]1C[C@@H](O)[C@H](O)[C@@H](O)[C@H]1O
IC50 [1]: 48 µM | inhibition [2]: < 30% | inhibition (Saccharomyces cerevisiae [4]): < 30%

C[C@H]1O[C@H](O[C@H]2[C@H](O)[C@@H](O)[C@@H](O[C@H]3[C@H](O)[C@@H](O)C(O)O[C@@H]3CO)O[C@@H]2CO)[C@H](O)[C@@H](O)[C@@H]1N[C@H]1C=C(CO)[C@@H](O)[C@H](O)[C@H]1O (stereo partly drawn) [ACARBOSE]
IC50 [1]: 1.5 µM | Ki [5]: 0.99 µM | competitive inhibition (Lineweaver-Burk) (Rattus norvegicus [6]): Active | IC50 [3]: 480 µM

CCCCCCCCCC(=O)N[C@H]1C[C@@H](O)[C@H](O)[C@@H](O)[C@H]1O
IC50 [1]: 2 µM | inhibition [2]: < 30% | Ki [5]: 1.5 µM | inhibition (Saccharomyces cerevisiae [4]): < 30% | competitive inhibition (Lineweaver-Burk) (Rattus norvegicus [6]): Active

CCCCCCCCCCN[C@H]1C[C@@H](O)[C@H](O)[C@@H](O)[C@H]1O
IC50 [1]: 2 µM | IC50 [7]: 410 µM | inhibition (Saccharomyces cerevisiae [4]): < 30%

CCCCCC(=O)N[C@@H]1C[C@@H](O)[C@H](O)[C@@H](O)[C@H]1O
IC50 [1]: 3.8 µM | IC50 [7]: 6.1 µM | IC50 [3]: 1700 µM

CCCCCC(=O)N[C@H]1C[C@@H](O)[C@H](O)[C@@H](O)[C@H]1O
IC50 [1]: 4.2 µM | inhibition [2]: < 30% | inhibition (Saccharomyces cerevisiae [4]): < 30%

CCCC(=O)N[C@@H]1C[C@@H](O)[C@H](O)[C@@H](O)[C@H]1O
IC50 [1]: 19 µM | IC50 [7]: 4.7 µM | IC50 [3]: 1200 µM

CCCCN[C@H]1C[C@@H](O)[C@H](O)[C@@H](O)[C@H]1O
IC50 [1]: 290 µM | inhibition [2]: < 30% | inhibition (Saccharomyces cerevisiae [4]): < 30%

CCN(CC)[C@H]1C[C@@H](O)[C@H](O)[C@@H](O)[C@H]1O
IC50 [1]: 21 µM | IC50 [7]: 360 µM | IC50 [3]: 1600 µM

CCCCCCN[C@@H]1C[C@@H](O)[C@H](O)[C@@H](O)[C@H]1O
IC50 [1]: 0.24 µM | inhibition [2]: < 30% | Ki [5]: 0.73 µM | Ratio IC50 (Rattus norvegicus [9]): 3 | competitive inhibition (Lineweaver-Burk) (Rattus norvegicus [6]): Active | IC50 [3]: 400 µM

CCCCN(CCCC)[C@@H]1C[C@@H](O)[C@H](O)[C@@H](O)[C@H]1O
IC50 [1]: 7.6 µM | inhibition [2]: < 30% | IC50 [3]: 1800 µM

CCCCCCN(CCCCCC)[C@H]1C[C@@H](O)[C@H](O)[C@@H](O)[C@H]1O
IC50 [1]: 32 µM | IC50 [7]: 120 µM | inhibition (Saccharomyces cerevisiae [4]): < 30%

CCCCCCCCCC(=O)N[C@@H]1C[C@@H](O)[C@H](O)[C@@H](O)[C@H]1O
IC50 [1]: 3.5 µM | inhibition [2]: < 30% | inhibition (Saccharomyces cerevisiae [4]): < 30%
